Consider one compound from patent publication US20220096515A1, “Methods and Formulations for Preventing Neurological or Psychiatric Disorders” (Huntington Medical Research Institutes, priority 2020, published 2022).

Common to all, as to type: in vivo, mouse
For one data set, the system named is P2X4. Nature of the data set: P2X4 mRNA and protein expression in endothelial cells after prenatal treatment. The following applies: after six-day treatment paradigm. As to the method:
Primary culture of endothelial cells and endothelial cell staining: Embryonic brains were dissected under a stereo-microscope, after the NAD^+ treatment paradigm and the telencephalon was removed. Pial membranes were peeled off. Telencephalon without pial membranes from the periventricular region was pooled. Purity of endothelial cell cultures was established with endothelial cell markers and determined to be one hundred percent. Isolation and culture of endothelial cells were performed according to published methodology. Periventricular endothelial cells were prepared from CD1 (wild type), saline-treated Gabrb3^fl/fl, saline-treated Gabrb3^ECKO, and NAD^+-treated Gabrb3^ECKO embryos. […]
Quantitative real-time PCR: RT was performed by using iScript Reverse Transcription Supermix kit (Bio-Rad). […] The relative gene expression and subsequent fold changes among different samples were determined according to published methodology.
An important aspect that influences endothelial cell proliferation is Ca^2+ influx, which is important for cell cycle progression in the neocortex. […] Therefore, P2X4 expression at both mRNA and protein levels in periventricular endothelial cells were evaluated, prepared after the six-day saline and NAD^+ treatment paradigm (FIGS. 11J-11O). […]

Data set [1] in a line: Litter size and pup growth after prenatal treatment. The following applies: prenatal NAD^+ treatment.
For the next data set, the system named is wildtype CD1 mice. Nature of the data set: Increasing dose regimen of NAD+ in wildtype CD1 mice, H&E of MGE. Conditions: i.p. As to the method:
Histology, immunohistochemistry, and microscopic analysis: Paraffin immunohistochemistry (IHC) was performed on embryonic brains only while frozen section IHC was used on both embryonic and adult brains. Briefly, for paraffin IHC-E18 brains were fixed in zinc fixative (BD Biosciences PharMingen) for 24 h and processed for paraffin histology. Histological stainings with hematoxylin (Vector Laboratories) and eosin (Sigma) were performed on 8 μm coronal sections. Lectin histochemistry (with biotinylated isolectin B4, 1:50, Sigma) as well as IHC was performed on 20 μm sections. Primary antibodies used for IHC were as follows: anti-PHH3 (1:200, Millipore) and anti-NKX2.1, (1:50; Sigma) followed by secondary detection with AlexaFluor conjugates (Invitrogen). DAPI (Vector Laboratories) was used to label nuclei. For frozen section IHC, E18 and P90 brains were removed, fixed in 4% PFA for 24 hours, cryo-protected in sucrose gradient, embedded into OCT medium for frozen blocks; sectioned at 40 μm on a cryostat and immunostained with anti-GABA (1:80, Sigma) and anti -PROX1 (1:80, Millipore) antibodies. Twenty sections from each brain were used for IHC and histology experiments. Uniform penetration of antibodies or stains throughout the section was ascertained and quality of the staining in each digital section was examined. […]

The subject of the next data set is Gabrb3^ECKO mice. Nature of the data set: Nest building (nestlets and shredded paper). As for the experimental part:
Behavioral Experiments: Mice were housed in our animal facility with a 12-hour light cycle with ad libitum access to food and water. Offspring stayed with their mothers until weaning at PND 21 after which males and females were separated. Before all behavioral testing, mice were acclimated to the testing room for 1 hour. Behavioral assays were performed according to established protocols referenced here: self-grooming, light-dark box, tail suspension test, Y-maze, open field locomotion activity, three chamber social interaction test and nest building with nestlets and with shredded paper. Both males and females were used for all behavioral assays. Experimenters scoring behaviors were blinded to the genotypes and treatment. Sample sizes for each assay are noted in figure legends.
Therefore, behavioral tests were performed to screen for stress, anxiety, locomotion, cognition, and sociability in saline-treated Gabrb3^fl/fl mice, saline-treated Gabrb3^ECKO mice and NAD^+-treated Gabrb3^ECKO mice. Mice from saline and NAD^+-treated groups were housed individually in cages containing wood chip bedding and two nestlets (pressed cotton) (FIGS. 16A-16D) or more naturalistic material like shredded paper strips (FIGS. 16E-16H). […] This rescue of home cage social behavior was a robust indication of well-being in NAD^+-treated Gabrb3^ECKO mice. […]

As to `NC(=O)c1ccc[n+]([C@@H]2O[C@H](COP(=O)([O-])OP(=O)(O)OC[C@H]3O[C@@H](n4cnc5c(N)ncnc54)[C@H](O)[C@@H]3O)[C@@H](O)[C@H]2O)c1` [NAD^+], the “P2X4 mRNA and protein expression” value in the data set on P2X4 is listed as “its expression was rescued”. Moreover, in data set [1], the growth of pups result is “grew normally to adulthood” and the litter size result is listed as “did not have any effect on litter size”. The “cell cluster in MGE (H&E)” value in the data set on wildtype CD1 mice (10 mg, 20 mg and 40 mg per mouse) is “a similar cell cluster in the MGE”. Besides, the lowest effective dose in the data set with wildtype CD1 mice was 10 mg per mouse. Moreover, the nest building ability result in the data set on Gabrb3^ECKO mice was “significant improvement in their nest building ability”.
